From patent publication US20200179428A1, “CYCLIC PHOSPHATE SUBSTITUTED NUCLEOSIDE DERIVATIVES AND METHODS OF USE THEREOF FOR THE TREATMENT OF VIRAL DISEASES” (priority 2016, published 2020) come the findings set out here.

Data set [1] concerns replicon cells (1b-Con1). The experiment in a line: Replicon activity assay (replicon RNA level by real-time RT-PCR, Taqman). The data set is classed as cell-based. To be noted: HCV replicon genotype 1b; read-out: EC50 (1b) Range. The gist of the method:
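HCV 1b-Con1 replicon cells treated 3 days with 10-point twofold serial dilutions in triplicate (0.5% DMSO, 10% FBS); replicon RNA quantified by Taqman real-time RT-PCR normalised to GAPDH, EC50 derived. Cytotoxicity by MTS read-out at day 3 on identically treated cells.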
(Replicon systems follow genome replication, usually without infectious particles.)

The test system of data set [2] is replicon cells. Kind of data set: Cytotoxicity MTS assay (CellTiter 96 Aqueous One Solution) in replicon cells. The data set is classed as cell-based. To be noted: EDU; read-out: CC50 (EDU) Range.

For the compound `CC(C)OC(=O)C(C)CCOP1(=O)OC[C@H]2O[C@@H](n3ccc(=O)[nH]c3=O)[C@](C)(N)[C@@H]2O1` (single isomer, unassigned) [Compound 10B1], in data set [1], the 50% effective concentration (EC50) was greater than 10 µM. Further, the CC50 in data set [2] is greater than 50 µM.
For `CC(C)OC(=O)C(C)CCOP1(=O)OC[C@H]2O[C@@H](n3ccc(=O)[nH]c3=O)[C@](C)(N)[C@@H]2O1` (single isomer, unassigned) [Compound 10B2], in data set [1], the EC50 was greater than 10 µM. For the same compound, in data set [2], the CC50 was greater than 50 µM.
The matching figures for `CC(C)OC(=O)C(C)CCOP1(=O)OC[C@H]2O[C@@H](n3ccc(=O)[nH]c3=O)[C@](C)(N)[C@@H]2O1` (single isomer, unassigned) [Compound 10B]: greater than 10 µM and greater than 50 µM.
The matching figures for `CC(CCOP1(=O)OC[C@H]2O[C@@H](n3ccc(=O)[nH]c3=O)[C@](C)(N)[C@@H]2O1)C(=O)OC1CCCC1` (single isomer, unassigned) [Compound 14A2]: greater than 10 µM and greater than 50 µM.
The like results for `CC(CCOP1(=O)OC[C@H]2O[C@@H](n3ccc(=O)[nH]c3=O)[C@](C)(N)[C@@H]2O1)C(=O)OC1CCCC1` (single isomer, unassigned) [Compound 14B1] were, in that order, 1 to 10 µM and greater than 50 µM.
Consider `CC(CCOP1(=O)OC[C@H]2O[C@@H](n3ccc(=O)[nH]c3=O)[C@](C)(N)[C@@H]2O1)C(=O)OC1CCCC1` (single isomer, unassigned) [Compound 14B2], for which the EC50 in data set [1] was 1 to 10 µM. Besides, in data set [2], the CC50 was greater than 50 µM.
The like results for `CC(CCOP1(=O)OC[C@H]2O[C@@H](n3ccc(=O)[nH]c3=O)[C@](C)(N)[C@@H]2O1)C(=O)OC1CCCC1` (single isomer, unassigned) [Compound 14B] were, in that order, greater than 10 µM and greater than 50 µM.
As for `CC(C)OC(=O)[C@@H](C)CCOP1(=O)OC[C@H]2O[C@@H](n3cnc4c(N)ncnc43)[C@](C)(Cl)[C@@H]2O1` (single isomer, unassigned) [Compound 35B1], in data set [1], the EC50 was no more than 0.25 µM. In addition, the CC50 in data set [2] was greater than 50 µM.
The matching figures for `CC(C)OC(=O)C(C)CCOP1(=O)OC[C@H]2O[C@@H](n3cnc4c(N)ncnc43)[C@](C)(Cl)[C@@H]2O1` (single isomer, unassigned) [Compound 35B2]: no more than 0.25 µM and greater than 50 µM.
The matching figures for `CC(C)OC(=O)C(C)CCOP1(=O)OC[C@H]2O[C@@H](n3cnc4c(N)ncnc43)[C@](C)(Cl)[C@@H]2O1` (single isomer, unassigned) [Compound 35B]: no more than 0.25 µM and greater than 50 µM.
The like results for `C#C[C@]1(C)[C@@H]2OP(=O)(OCCC(C(=O)OC(C)C)C(=O)OC(C)C)OC[C@H]2O[C@H]1n1ccc(=O)[nH]c1=O` (single isomer, unassigned) [Compound 36B] were, in that order, 1 to 10 µM and greater than 50 µM.
Consider `CC(C)OC(=O)[C@@H](C)CCOP1(=O)OC[C@H]2O[C@@H](n3ccc(=O)[nH]c3=O)[C@](C)(Cl)[C@@H]2O1` (single isomer, unassigned) [Compound 39B2], for which the EC50 in data set [1] was in the range of 0.25 to 1 µM. Moreover, the CC50 in data set [2] is greater than 50 µM.
In the case of `C#C[C@@]1(O)[C@@H]2OP(=O)(OCCC(C)C(=O)OC(C)C)OC[C@H]2O[C@H]1n1ccc(=O)[nH]c1=O` (stereo partly shown) [Compound 7B], the EC50 in data set [1] was no more than 0.25 µM. Moreover, the CC50 in data set [2] was greater than 50 µM.
For the compound `CO[C@H](CCOP1(=O)OC[C@H]2O[C@@H](n3ccc(=O)[nH]c3=O)[C@](C)(Cl)[C@@H]2O1)C(=O)OC(C)C` (stereo partly shown) [Compound 37B], in data set [1], the concentration for a half-maximal effect (EC50) is no more than 0.25 µM. In addition, the CC50 in data set [2] is greater than 50 µM.
Consider `CC(C)OC(=O)C(CCOP1(=O)OC[C@H]2O[C@@H](n3ccc(=O)[nH]c3=O)[C@](C)(Cl)[C@@H]2O1)C(=O)OC(C)C` (stereo partly shown) [Compound 38B], for which the EC50 in data set [1] is no more than 0.25 µM. Besides, in data set [2], the CC50 was greater than 50 µM.
On to `CC(C)OC(=O)C(C)CCOP1(=O)OC[C@H]2O[C@@H](n3ccc(=O)[nH]c3=O)[C@](C)(Cl)[C@@H]2O1` (stereo partly shown) [Compound 39B], for which the EC50 in data set [1] was no more than 0.25 µM. The half-maximal cytotoxic concentration (CC50) in data set [2] is greater than 50 µM.
For the compound `C#C[C@]1(C)[C@@H]2O[P@@](=O)(OCC(CC(=O)OC(C)C)N(C)C(=O)OC(C)(C)C)OC[C@H]2O[C@H]1n1ccc(=O)[nH]c1=O` (stereo partly shown) [Compound 74A2], the concentration giving a half-maximal response (EC50) in data set [1] is greater than 10 µM. For the same compound, the CC50 in data set [2] is greater than 50 µM.

For orientation: EC50 means the concentration at which the effect is half-maximal. What is called CC50 is the concentration at which the toxic effect on the cells reaches its halfway point.
